According to patent US20250100962A1 (CITY OF HOPE, priority 2023, published 2025):

What was measured:
CLOCK protein = CLOCK protein palmitoylation (acyl-biotin exchange) and stability; format: cell-based
Text: FIGS. 11A-11C. Analysis of CLOCK protein S-palmitoylation. FIGS. 11A-11B: Identification of CLOCK palmitoylation by acyl-biotin exchange method using hydroxylamine (HAM). […] FIG. 11C: Structural modeling of the palmitoylation pocket and the docking pose within the hydrophobic pocket that lies between the interface of CLOCK interaction with Bmal1. FIGS. 12A-12C. Palmitoylation modulates CLOCK protein stability and interaction with Bmal1. […] FIG. 12B: CLOCK palmitoylation cysteine mutations inhibit its interaction with heterodimer partner Bmal1 and Bmal1 stability by single amino acid mutations. FIG. 12C: CLOCK palmitoylation site mutations attenuated CLOCK-mediated transcription activation.

C2C12 myoblasts = experiment: Myogenic differentiation of C2C12 myoblasts; format: cell-based, mouse; details: Table 1 summary of CHX analogs
Procedure: Pictures were taken every day to monitor morphological progression, and proteins and RNA samples were collected on days indicated.
C2C12, C2C12 Bmal1 KD and C2C12 Scrambled control (SC) myoblasts were seeded at Day −1 at 2×105 concentration on 12 wells plates and maintained in 10% FBS until 80% confluency and treated with indicated compounds and controls in 2% FBS DMEM media to induce differentiation on Day 0. On days 3, 5 and 7 cells were fixed with 4% paraformaldehyde (from 37% Formaldehyde Baker Analyzed) and kept at 4° C. in PBS. Cells were permeabilized with Permeabilization solution of 0.5% Triton X-100 (Fisher Bioreagents CN: 9002-93-1) in PBS and blocked with Blocking solution of 1% BSA (Fisher Bioreagents CN:9048-46-8) in PBS. Primary antibodies were diluted in Washing solution of 0.01% Triton X-100 (Fisher Bioreagents CN: 9002-93-1) in PBS and left overnight at 4° C. Cells were then incubated with secondary antibodies in Washing solution at room temperature for 1 h. 1 μg/ml 4′,6′-diamidine-2′-phenylindole dihydrochloride (DAPI) was used to label for nuclei. […] To quantify the proliferation of myoblast, when needed, cells were treated with 1 μg/ml of EdU for 3 h before fixation. Detection of EdU was performed with Click-iT EdU Alexa Fluor 488 Imaging Kit before applying the immunofluorescence staining as described above.

[1] = tested on: U2OS cells containing Per2::dLuc luciferase reporter; experiment: Real-time bioluminescence monitoring of Per2::Luciferase reporter in U2OS cells (LumiCycle); format: cell-based; details: for LumiCycle Result: Clock activity, Amplitude / LumiCycle Result: Clock activity, Period: Table 1; for LumiCycle Result: Clock activity, Amplitude / LumiCycle Result: Clock activity (overall) / LumiCycle Result: Clock activity, Period: U2OS Per2::dLuc; for LumiCycle Result: Clock activity (overall): CHX analogs screened; for Modulatory Property: clock-modulatory classification
Procedure: U2OS cells or mouse fibroblasts (MF) containing a Per2-luciferase reporter (Yoo et al., 2004) were seeded at 4×10^5 concentration on 24 well plates and treated at 90% confluence with 1 ml 1×Fresh explant medium with desired compounds and controls. The seeding density was decided after trying several densities and choosing the one that after 24 h lead to 90% confluence. 1× Fresh explant medium was produced using 50% 2×DMEM buffer stock [DMEM powder (Gibco—Thermo Fisher CN: 12800-017), Sterile MilliQ water, pH7 1 M HEPES (Gibco—Thermo Fisher CN:15630080) and 7.5% Sodium Bicarbonate (Gibco—Thermo Fisher CN: 25080094)], 10% FBS (Cytiva), 37.9% Sterile MiliQ water, 1% PSG 100× (Gibco—Thermo Fisher CN: 10378016), 0.1% Sodium Hydroxixe (NaOH) 100 mM (Fishel Chemical CN: S318-500), 1% XenoLight D-Luciferin—Monopotassium Salt Bioluminiscent Substrate 100 mM (PerkinElmer CN: 122799). Treated cells were introduced to the LumiCycle96 (ActiMetrics) were they were cultured and Per2-luciferafe reporter luminescence was measured for 6 days. Raw and subtracted results for 5 days were exported and data was calculated as luminescence counts per second.

mice = details: chow and high-fat diet; Xiong et al., 2023; cited from earlier work

For `CCCCCCCCCCCCCCC(Br)C(=O)O` (centres unmarked) [2-BrP], the CLOCK protein stability (CLOCK protein) was “reduces CLOCK protein stability” and the CLOCK palmitoylation (CLOCK protein; Flag-tagged CLOCK in HEK 293T cells) was “loss of CLOCK palmitoylation”.
In the case of `CCCCCCCNC(=N)NC(=N)Nc1ccc(Cl)cc1` [CM001], the Myogenesis (C2C12 myoblasts) is reported as “No effect” and the “LumiCycle Result: Clock activity, Amplitude” value (“LumiCycle Result … Amplitude” for short) [1] is reported as “Amplitude: No effect”.
In the case of `N=C(NCCCCCCNC(=N)Nc1ccc(Cl)cc1)NC(=N)Nc1ccc(Cl)cc1` [CM003], the “LumiCycle Result: Clock activity (overall)” value (shortened to “LumiCycle Result … (overall)”) [1] is reported as “No effect”.
With `N=C(NCCCCCCNC(=N)Nc1ccc(Cl)cc1)Nc1ccc(Cl)cc1` [CM004] the Myogenesis (C2C12 myoblasts) was “Enhanced”, the “LumiCycle Result … Amplitude” value [1] was “Amplitude: Increased” and the “LumiCycle Result: Clock activity, Period” value [1] was “Period: Shortening”. For the same compound, the “Modulatory Property” value [1] was “Activator”.
With `N=C(NCCCCCCCCCCCCCCNC(=N)NC(=N)Nc1ccc(Cl)cc1)NC(=N)Nc1ccc(Cl)cc1` [CM005] the Myogenesis (C2C12 myoblasts) was “Slight inhition”, the “LumiCycle Result … Amplitude” value [1] was “Amplitude: Increased at low” and the “LumiCycle Result: Clock activity, Period” value [1] was “Period: Lengthening”. The “Modulatory Property” value [1] was “Inhibitor”.
In the case of `CCCCCCCNC(=N)Nc1nc2ccc(Cl)cc2[nH]1` [CM007], the “LumiCycle Result … (overall)” value [1] is reported as “No effect”.
With `N=C(NCCCCCCNC(N)=O)NC(=N)Nc1ccc(Cl)cc1` [CM008] the “LumiCycle Result … (overall)” value [1] was “Cellular toxicity”.
In the case of `COc1ccc(-c2cc(=O)c3c(OC)c(OC)c(OC)c(OC)c3o2)cc1OC` [Nobiletin], the anti-obesity effect (mice) is given as “strong anti-obesity effect”.
For `CCCCCCCCCCC[C@@H](C[C@@H]1OC(=O)[C@H]1CCCCCC)OC(=O)[C@H](CC(C)C)NC=O` [Orlistat], the CLOCK protein stability (CLOCK protein) was “reduces CLOCK protein stability”.
